Measurements reported in patent publication US6706664B1, “Benzoxazole compounds, process for the preparation thereof and herbicides” (UBE Industries, Ltd., priority 1999, dated 2004).

Columns and labels:
Set-up in all cases: key: 0: normal development; 1: Less damaged; 2: Slightly damaged; 3: Moderately damaged; 4: Severely damaged; 5: All killed
[1] = system: flat sedge; assay: Herbicidal test for paddy field; assay type: in vivo, Cyperus serotinus; conditions: paddy field pot, 500 g/ha dropwise at 1.5 leaf stage of barnyardgrass, 3 weeks, rank vs non-treated
In short: (§1)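 Scores ran from 0 (normal development) to 5 (all killed) against untreated pots, judged after 3 weeks in a glasshouse averaging 25° C. Compound, as wettable powder diluted in water with 0.05% surfactant, was applied dropwise into 3 cm-deep paddy water at 500 g/ha. Application was at the 1.5-leaf stage of barnyardgrass.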

[2] = system: soybean; assay: Foliar spread test for upland field; assay type: in vivo; conditions: foliar spray 500 ppm, 3 weeks, rank vs non-treated
In short: (§2)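 Crop seeds sown in volcanic ash soil in Wagner pots were raised about 2 weeks in a glasshouse, then sprayed with wettable-powder formulations diluted to 500 ppm in water with 0.5% surfactant. After 3 weeks at an average 25° C., injury was scored 0 (normal) to 5 (all killed).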

[3] = system: cotton; assay: Foliar spread test for upland field; assay type: in vivo; conditions: foliar spray 500 ppm, 3 weeks, rank vs non-treated
In short: as §2

[4] = system: barnyardgrass; assay: Foliar spread test for upland field; assay type: in vivo, Echinochloa crusgalli; conditions: foliar spray 500 ppm, 3 weeks, rank vs non-treated
In short: (§3)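 Wettable powders at 500 ppm, with 0.5% surfactant, were sprayed uniformly over plants raised for roughly 2 weeks in glasshouse pots of volcanic ash soil. Herbicidal damage rated on a 0–5 scale (5 = all killed) after a further 3 weeks at an average 25 °C.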

[5] = system: barnyardgrass; assay: Herbicidal test for paddy field; assay type: in vivo, Echinochloa crusgalli; conditions: paddy field pot, 500 g/ha dropwise at 1.5 leaf stage of barnyardgrass, 3 weeks, rank vs non-treated
In short: as §1

[6] = system: young rice plant; assay: Herbicidal test for paddy field; assay type: in vivo; conditions: paddy field pot, 500 g/ha dropwise at 1.5 leaf stage of barnyardgrass, 3 weeks, rank vs non-treated
In short: as §1

[7] = system: bulrush; assay: Herbicidal test for paddy field; assay type: in vivo, Scrips juncoides; conditions: paddy field pot, 500 g/ha dropwise at 1.5 leaf stage of barnyardgrass, 3 weeks, rank vs non-treated
In short: as §1

[8] = system: velvetleaf; assay: Soil treatment test for upland field; assay type: in vivo, Abutilon theophrasti; conditions: 500 g/ha, glass house 25° C., 3 weeks
In short: (§4)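 Soil treatment, 500 g/ha, sprayed onto soil surface after sowing; alluvial Ube soil; 0.05% surfactant in diluent; glasshouse, avg 25° C, 3 wk; visual score 0–5 (5 = all killed).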

[9] = system: velvetleaf; assay: Foliar spread test for upland field; assay type: in vivo, Abutilon theophrasti; conditions: foliar spray 500 ppm, 3 weeks, rank vs non-treated
In short: as §3

[10] = system: blackgrass; assay: Soil treatment test for upland field; assay type: in vivo, Alopecurus aegualis; conditions: 500 g/ha, glass house 25° C., 3 weeks
In short: as §4

[11] = system: common lambsquartes; assay: Soil treatment test for upland field; assay type: in vivo, Chenopodium album; conditions: 500 g/ha, glass house 25° C., 3 weeks
In short: as §4

[12] = system: monochoria; assay: Herbicidal test for paddy field; assay type: in vivo, Monochoria vaginalis; conditions: paddy field pot, 500 g/ha dropwise at 1.5 leaf stage of barnyardgrass, 3 weeks, rank vs non-treated
In short: as §1

[13] = system: blackgrass; assay: Foliar spread test for upland field; assay type: in vivo, Alopecurus aegualis; conditions: foliar spray 500 ppm, 3 weeks, rank vs non-treated
In short: as §3

Row | SMILES | Effect Flat sedge [1] | Effects Soybean [2] | Effects Cotton [3] | Effects Barnyardgrass [4] | Effect Barnyardgrass [5] | Effect Young rice plant [6] | Effect Bulrush [7] | Effects Velvetleaf [8] | Effects Velvetleaf [9] | Effects Blackgrass [10] | Effects Common lambsquarters [11] | Effect Monochoria [12] | Effects Blackgrass [13]
1 | CCC(Oc1ccc(F)c(C(F)(F)F)c1)c1nc2cc(Cl)c(C)cc2o1 (stereo not shown) [Compound 340] | 2 | 3 | 3 | 2 | 5 | 0 | 4 | 5 | 4 | 4 | 5 | 5 | 2
2 | CCC(Oc1ccc(F)c(C(F)(F)F)c1)c1nc2cc(Br)ccc2o1 (stereo not shown) [Compound 165] | 3 | 5 | 3 | 2 | 4 | 2 | – | 1 | 3 | 4 | 3 | 5 | 3
3 | CCC(Oc1ccc(F)c(C(F)(F)F)c1)c1nc2cc(F)ccc2o1 (stereo not shown) [Compound 119, 1-(5-fluorobenzoxazol-2-yl)-1-(4-fluoro-3-(trifluoromethyl)phenoxy)propane] | 2 | 2 | 1 | 1 | 3 | 1 | – | – | 2 | 3 | 1 | 4 | –
4 | CCC(Oc1cccc(C(F)(F)F)c1)c1nc2cc(C#N)ccc2o1 (stereo not shown) [Compound 190] | 3 | 5 | 3 | 3 | 5 | 3 | – | 3 | 4 | 3 | 4 | 5 | 3
5 | CCC(Oc1cccc(C(F)(F)F)c1)c1nc2cc(F)ccc2o1 (stereo not shown) [Compound 120] | 2 | 5 | 2 | 1 | 4 | 1 | 3 | 3 | – | 3 | 4 | 5 | 2
6 | CCCC(Oc1cccc(C(F)(F)F)c1)c1nc2cc(C#N)ccc2o1 (stereo not shown) [Compound 192] | 4 | 3 | 3 | 2 | 5 | 1 | 4 | 5 | 3 | 5 | 5 | 5 | 2
7 | CCC(Oc1cccc(C(F)(F)F)c1)c1nc2cc(Br)ccc2o1 (stereo not shown) [Compound 166] | 4 | 4 | 2 | 1 | 3 | 1 | – | – | 2 | 3 | 2 | 5 | 1
8 | CCC(Oc1cccc(OC(F)(F)F)c1)c1nc2cc([N+](=O)[O-])ccc2o1 (stereo not shown) [Compound 450] | 3 | 4 | 5 | 3 | 4 | 1 | 4 | 5 | 3 | 5 | 4 | 5 | 3
9 | CCC(Oc1ccc(Cl)c(C(F)(F)F)c1)c1nc2cc(F)ccc2o1 (stereo not shown) [Compound 441] | 2 | 3 | 3 | 2 | 5 | 1 | – | 1 | – | 3 | 4 | 5 | 2
10 | CCC(Oc1ccc(F)c(C(F)(F)F)c1)c1nc2cc(F)c(F)cc2o1 (stereo not shown) [Compound 284] | 4 | 5 | 3 | 1 | 4 | 2 | 4 | 5 | 2 | 5 | 4 | 5 | 2
11 | CCC(Oc1ccc(F)c(C(F)(F)F)c1)c1nc2cc([N+](=O)[O-])ccc2o1 (stereo not shown) [Compound 177] | 3 | 5 | 3 | 2 | 5 | 2 | 5 | 5 | 4 | 5 | 4 | 5 | 2
